Data: publication PMC10104742, “The Determination of Polymyxin B in Critically Ill Patients by the HPLC-MS/MS Method” (International Journal of Analytical Chemistry, 2023)
Positions of bridges follow the written chain, without caps; N, C: chain ends. Non-standard residues stand in square brackets, D forms with d. Residues, ends and D or L forms follow the SMILES beside them. *: point of attachment. X1 = CC[C@H](C)CCCCC(=O)*; Dab = NCC[C@H](N)C(=O)O

Assays:
[1] = Stability of working and stock solutions; type: physicochemical
Description: Standard and IS stock solutions were prepared in Milli-Q water containing 1% FA (v/v) at 1 mg/mL (with all substances) and subpacked in EP tubes. Working solutions were diluted from the stock solution. The concentrations of PB1 in the PB1-I's working solution were 160, 120, 100, 48, 24, 12, 6, and 2 μg/mL. The quality control (QC) working solutions were 140, 80, 20, and 4 μg/mL. The IS solution, polymyxin E2, was diluted in 1% FA water to 7.5 μg/mL. All solutions were stored at −80°C.
(§1) QC samples (QCL, QCM1, QCM2, and QCH) were used to investigate the stability of the stock solutions, working solutions, and samples. Each QC was set with three parallels. The stability of plasma samples stored at room temperature (25°C) for 4 h, at 4°C in a refrigerator for 24 h, at −20°C for 37 days, and at −80°C for 97 days was investigated. The freeze-thaw stability of −20°C and −80°C freeze-thaw cycles at three times each was investigated. The stability of the stock and working solutions stored at −80°C for 97 days was investigated. The accuracy of the quality control sample should be within ±15% of the nominal concentration; the precision should be within 15%.

[2] = Stability of extracted supernatant in the autosampler; type: physicochemical; settings: extracted supernatant in automatic sampler, 24 h
Description: The LC-MS/MS system consisted of an Agilent 1260 HPLC system equipped with a cooled autosampler (4°C) and an Agilent 6460 electrospray ionization-triple quadrupole mass spectrometer (Agilent Technologies, USA). The chromatographic column was BEH C18 (Waters, 2.1 × 50 mm, 1.7 μm) (Waters Corporation, USA). Ultrapure water was prepared using the Milli-Q Direct 8 (E. Merck, Darmstadt, Germany) water purification system. A Heraeus Multifuge X1R (Thermo Fisher Scientific, USA) high-speed refrigerated centrifuge was used for the centrifugation. SHIMADZU-AUW120D (Shimadzu Corporation, Japan) was used for the weighting.
(§2) Volume of 200 μL ACN with 0.2% TFA and 0.1% FA was added to a 100 μL plasma sample containing 10 μL IS solution, vortexed for 2 min, and centrifugated at 18800 g at 4°C for 15 min. The supernatant was then transferred to a 96-well plate for analysis.
as §1, with “The stability of the stock and working solutions stored at −80°C for 97 days was investigated. The accuracy of the quality control sample should be within ±15% of the nominal concentration; the precision should be within 15%.” left out

[3] = Stability of PB in plasma QC samples (short-term, freeze-thaw, long-term); type: in vitro ADME, human; settings: for Stability of the sample (in words): human plasma sample
Description: Blank plasma (190 μL) and 10 μL working solution were mixed to prepare calibration curves of 8000, 6000, 5000, 2400, 1200, 600, 300, and 100 ng/ml for PB1/PB1-I, and 948.5, 711.4, 592.8, 284.6, 142.3, 71.1, 35.6, and 11.9 ng/mL for PB2/PB3. Similar to the QC standards, for PB1/PB1-I, the low QC (QCL), medium QC 1 (QCM1), medium QC 2 (QCM2), and high QC (QCH) were 200, 1000, 4000, and 7000 ng/ml, respectively. For PB2/PB3, QC standards were 23.7, 118.6, 474.3, and 830.0 ng/ml. First, a 100 μL calibration sample or QC sample was removed; 10 μL IS solution, 200 μL ACN with 0.1% FA (v/v), and 0.2% TFA (v/v/v) were added successively. The samples were vortexed for 2 min to make precipate the protein fully, then centrifugated at 18800 g at 4 ℃ for 15 min. About 200 μL of the supernatant was sucked and transferred into 96-well plates for analysis.
as §2, §1

CC[C@H](C)CCCCC(=O)N[C@@H](CCN)C(=O)N[C@H](C(=O)N[C@@H](CCN)C(=O)N[C@H]1CCNC(=O)[C@H]([C@@H](C)O)NC(=O)[C@H](CCN)NC(=O)[C@H](CCN)NC(=O)[C@H](CC(C)C)NC(=O)[C@@H](Cc2ccccc2)NC(=O)[C@H](CCN)NC1=O)[C@@H](C)O [PB, Polymyxin B] (X1-[Dab]T[Dab][Dab][Dab][dF]L[Dab][Dab]T; lactam 4-C)
stable: Stability of the stock solution (in words) ([1]; stock solution at −80°C for 97 days) | Stability of the working solution (in words) ([1]; working solution at −80°C for 97 days) | Stability of the working solution (in words) ([1]; working solution stored at −20°C for 18 days) | Stability of the extracted supernatant (in words) [2] | Stability of the sample (in words) ([3]; 4°C, 24 h) | Stability of the sample (in words) ([3]; room temperature, 4 h) | Stability of the sample (in words) ([3]; −20°C, three freeze-thaw cycles) | Stability of the sample (in words) ([3]; −80°C, three freeze-thaw cycles) | Stability of the samples (in words) ([3]; human plasma samples stored at −20°C for 37 days) | Stability of the samples (in words) ([3]; human plasma samples stored at −80°C for 97 days)
